pIC50: −log10 of the molar value. Side chains are listed from the residue outwards. Peptide text beside a SMILES is read from it. * marks the point of attachment. X1 = NCCCC[C@H](N)CN1CCC[C@H]1C(=O)*
Target: T1, cell-surface expressed nucleolin (Homo sapiens, UniProt P19338)
T1 construct: endogenous in cells; host or cells: HeLa P4 cells
Assay: cell-based

T1 sequence (P19338 whole entry): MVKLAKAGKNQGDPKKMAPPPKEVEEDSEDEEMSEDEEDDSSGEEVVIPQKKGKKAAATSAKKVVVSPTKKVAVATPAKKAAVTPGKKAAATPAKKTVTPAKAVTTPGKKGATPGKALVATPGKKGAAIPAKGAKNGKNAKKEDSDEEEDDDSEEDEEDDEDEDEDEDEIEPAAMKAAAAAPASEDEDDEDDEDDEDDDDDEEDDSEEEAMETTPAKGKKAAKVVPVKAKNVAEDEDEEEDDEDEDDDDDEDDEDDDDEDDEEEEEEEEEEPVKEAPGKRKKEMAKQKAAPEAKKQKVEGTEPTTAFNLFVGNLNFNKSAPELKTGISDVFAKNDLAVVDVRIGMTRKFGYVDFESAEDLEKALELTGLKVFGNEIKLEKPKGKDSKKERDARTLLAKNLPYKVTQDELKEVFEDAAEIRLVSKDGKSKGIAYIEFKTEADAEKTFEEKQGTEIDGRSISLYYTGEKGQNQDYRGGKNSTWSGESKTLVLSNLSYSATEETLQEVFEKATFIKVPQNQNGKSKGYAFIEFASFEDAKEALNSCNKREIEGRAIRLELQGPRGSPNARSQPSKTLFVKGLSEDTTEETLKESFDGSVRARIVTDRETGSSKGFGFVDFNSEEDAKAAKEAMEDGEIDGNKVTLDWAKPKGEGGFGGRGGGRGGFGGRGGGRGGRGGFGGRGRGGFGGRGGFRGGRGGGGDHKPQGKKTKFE

**Q.** How did the pIC50 turn out when `CC(=O)N[C@@H](CCCCNC(=O)[C@H](CCCNC(=N)N)NC(=O)[C@@H]1CCCN1C[C@@H](N)CCCCN)C(=O)N[C@@H](C)C(=O)N[C@@H](CCCCNC(=O)[C@H](CCCNC(=N)N)NC(=O)[C@@H]1CCCN1C[C@@H](N)CCCCN)C(=O)N1CCC[C@H]1C(=O)NCC(=O)N[C@@H](CCCCNC(=O)[C@H](CCCNC(=N)N)NC(=O)[C@@H]1CCCN1C[C@@H](N)CCCCN)C(=O)N[C@@H](C)C(=O)N[C@@H](CCCCNC(=O)[C@H](CCCNC(=N)N)NC(=O)[C@@H]1CCCN1C[C@@H](N)CCCCN)C(=O)N1CCC[C@H]1C(=O)NCC(=O)N[C@@H](CCCCNC(=O)[C@H](CCCNC(=N)N)NC(=O)[C@@H]1CCCN1C[C@@H](N)CCCCN)C(=O)N[C@@H](C)C(=O)N[C@@H](CCCCNC(=O)[C@H](CCCNC(=N)N)NC(=O)[C@@H]1CCCN1C[C@@H](N)CCCCN)C(=O)N1CCC[C@H]1C(=O)NCC(N)=O` [Nucant 7] (Ac-K([Arg-X1])AK([Arg-X1])PGK([Arg-X1])AK([Arg-X1])PGK([Arg-X1])AK([Arg-X1])PG-NH2) was run?
**A.** > 7.00

**Q.** What about the inhibition at 0.8 µM (HeLaP4, read-out: inhibitory activity) of the same molecule?
**A.** > 95%
